Experimental data taken from the NIST ThermoML archive (doi:10.1021/je400076x).
± gives the expanded uncertainty stated by the source.

Conditions: Crystal; DTA

- Normal melting temperature: 60.30 ± 5 °C
Structure (SMILES): CCCCn1cc[n+](C)c1.[Cl-] [1-butyl-3-methylimidazolium chloride]
